Experimental findings from patent US20260027073A1, “USE OF SMALL-MOLECULE COMPOUND HAVING NAPHTHYLAMINE STRUCTURE” (HANGZHOU PHECDAMED CO., LTD., priority 2023, published 2026) are described below.

The test system of experiment [1] is myocardial infarction rats. In words: Myocardial infarction by coronary artery ligation. Conditions: TJ01-013 30 mg/kg, Entresto 10 mg/kg, oral, 4 weeks. The format is in vivo, SD rats. The method, then:
180 g-200 g SD rats were anesthetized by chloral hydrate after fasting for 12 h, the hair from the mandible to the upper part of the abdominal cavity and the ventral surfaces of the limbs was removed cleanly, and they were fixed on the surgical table, firstly, a small incision of about 1.5 cm was made in the neck with a scalpel, and then the subcutaneous muscle layer was bluntly separated with surgical scissors to expose the trachea, and then the tracheal tube was intubated and connected to the animal respiratory machine. After sterilizing with iodophor, the skin was cut on the left side of the chest between the 3rd and 4th ribs, and the muscles were bluntly separated to expose the ribs. The 3rd rib was cut with surgical scissors, hemostatic forceps were used to clamp and break the cut rib, and an eyelid opener was placed to peel the pericardium. After the pericardium was cut, a cotton swab moistened with saline was used to gently pivot the heart to locate the left auricle and coronary arteries. A threaded suture needle was clamped with a microscopic needle holder, and passed through the myocardium from right to left at 2-3 mm below the left auricle to ligate the coronary artery. At the end of the ligation, the organs in the thoracic cavity were recovered with saline-soaked cotton swabs, and figure-of-eight sutures were applied to the third and fourth ribs. After the rib layer suture was completed, subcutaneous muscle layering suture was performed, and the skin was finally sutured. After dialing out the tracheal tube, the rats were closely observed whether they had spontaneous respiration or not, and if there was no respiration they should be immediately pressed on the chest cavity for cardiopulmonary resuscitation. The electrocardiograph was connected to measure the postoperative electrocardiogram. […] The drug was administered orally by gavage in a volume of 10 ml/kg, and the frequency of administration was once a day for 4 weeks, and then the rats were anesthetized for cardiac ultrasound.
The rats were anesthetized by intraperitoneal injection of sodium pentobarbital 40 mg/kg, and the limbs were fixed on a wooden board in supine position, and the board was tilted to the left at 30 degrees. The chest was shaved and a II lead ECG was connected. A ULTRAMARK 9 ultrasonic diagnostic instrument from ATL, USA was used with a wide bandwidth line array probe with a frequency of 10 MHz-5 MHz. The Doppler detection frequency was 6.0 MHz, the length of the probe was 38 mm, the gain of the instrument was fixedly set as 50 dB in the experiment, and the depth of the image was adjusted to 2.5 cm. The probe was placed on the left side of the sternum at 10-30 degrees from the midline of the sternum to display the parasternal left ventricular long-axis view, and the probe was rotated clockwise by 90 degrees to display the left ventricular view. Doppler flow measurements of the mitral and aortic valves were performed in the parasternal left ventricular long-axis view and the pulmonary artery long-axis view. Ultrasound measurement indexes included left ventricular end-diastolic internal diameter (LVDd), end-systolic internal diameters (LVDs), left ventricular ejection fraction EF, left ventricular short-axis shortening rate FS, and infarct size.

The test system of experiment [2] is LPS-induced acute lung injury mice. In words: Survival in LPS-induced acute lung injury. The format is in vivo, C57 mice. Conditions: 20 mg/kg intraperitoneal once a day; up to 9 days; FIG. 28. The method, then: The model was constructed as follows, male mice C57 aged 6-8 weeks and weighing 18-22 g were anesthetized and fixed, and then 20 mg/kg LPS (E.coil) was dissolved in 50 μl of PBS and dripped under direct laryngoscopic vision to form a model group. The experiment was divided into three groups, each having six mice, LPS group (model control group, airway drip of 50 μl LPS), LPS+20 mg/kg group (airway drip of 50 μl LPS, and given 20 mg/kg of TJ01-013 treatment), LPS+Sivelestat group (positive control group, airway drip of 50 μl LPS and given 5 mg/kg of Sivelestat treatment). The mode of administration was intraperitoneal injection, the volume of administration was 5 ml/kg, the frequency of administration was once a day, and the biological deaths and changes in body weights of the mice were observed and recorded every day, and the mice were regarded as physiologically dead if their body weights decreased by 20% or more compared with that before the administration of LPS. Survival curves were plotted based on deaths observed up to 9 days after administration.

Experiment [3] deals with HGPS-MSC. Description: Senescence of HGPS patient derived mesenchymal stem cells. It is filed as cell-based, human. Conditions: 10 μM. The method, then: Mesenchymal stem cells HGPS-MSC differentiated from pluripotent stem cells (iPSC) of patients with Hutchinson-Gilford Progeria Syndrome (HGPS) were taken for culture, and the experiment was divided into three groups, namely, young cells cultured for 7 generations, labeled as Con-Y; senescent cells cultured for 12 generations, labeled as Con-O; and the administration group to which 10 μM of TJ01-013 was added during the process of culture, similarly cultured up to the 12th generation, labeled as Con-O+TJ01-013; the drug administration group to which 10 μM positive drug Ionafarnib was added during the process of culture, similarly cultured up to the 12th generation, and labeled as Con-O+ Ionafarnib; after the end of the treatment, all the cells were placed under the microscope to observe the morphology of the cells, and the proportion of SA-β-gal+ cells was counted. The levels of DNA damage marker γ-H2AX and heterochromatin modification H3K9me3 after TJ01-013 treatment and Ionafarnib treatment were detected by immunofluorescence technique (the specific procedure was described previously).

For the molecule `O=C(O)C[S+]([O-])c1cc(NS(=O)(=O)c2ccc(Br)cc2)c2ccccc2c1O` (stereo not drawn) [I-1], in experiment [1] (FIG. 37), the infarct size entry was “reduced”. Also, in experiment [1] (FIG. 38), the “left ventricular end-diastolic diameter (LVDd)” value was “no significant effect”. Moreover, the “end-systolic diameter (LVDs)” value in experiment [1] (FIG. 39) is recorded as “did not have a significant effect”. The “left ventricular ejection fraction EF” value in experiment [1] (FIG. 40) is reported as “significantly increased”. Further, the “left ventricular short-axis fractional shortening FS” value in experiment [1] (FIG. 41) is recorded as “significantly increased”. The survival rate entry in experiment [2] is “significantly elevated”. In experiment [3] (12th generation, vs Con-O, FIG. 54), the “percentage of SA-β-gal+ cells” value is on record as “significantly decreased”. In addition, the “level of DNA damage marker γ-H2AX” value in experiment [3] (FIG. 55) was “significantly reduced”. For the same molecule, the “expression level of heterochromatin-modified H3K9me3” value in experiment [3] (FIG. 56) is on record as “restored its expression level to some extent”.
